Results as given in US12428406B2 (PMV Pharmaceuticals, Inc., priority 2019, dated 2025).

biological target: T1, p53 Y220C (Homo sapiens, UniProt P04637, Y220C); assay: In vitro DNA binding activity assay (HTRF / TR-FRET): stabilization of p53 Y220C and increase of its DNA binding activity; assay type: biochemical; conditions: recombinant His-tagged p53 Y220C DNA binding domain (aa 94-312), biotin-labeled consensus DNA, incubated at 27° C. or 29° C. for 60 min
T1 construct: The recombinant protein was a truncation mutant containing only amino acids 94-312 of p53; made in house; host or cells: E. coli
Method: The ability of a compound of the invention to stabilize p53 Y220C and increase the DNA binding activity of p53 Y220C was measured by a homogeneous time-resolved fluorescence (HTRF) assay. Recombinant His-tagged p53 Y220C used in the HTRF assay was expressed in the bacterium E. coli.
The binding of the recombinant His-tagged p53 Y220C protein and the biotin-labeled consensus DNA was measured using fluorescence resonance energy transfer (FRET). For the FRET assay, the binding between the p53 mutant and the DNA sequence was measured by detecting the fluorescence of the interaction between an anti-His antibody conjugated to allophycocyanin (APC) and streptavidin conjugated to europium to detect the biotin-labeled DNA.
The test compounds were prepared as 4.5 mM stock solutions in dimethyl sulfoxide (DMSO). The compounds of the disclosure were used to test the stabilization of p53 Y220C and increase in DNA binding activity of p53 Y220C. The stock solutions were then serially diluted 3-fold in DMSO, and 1.2 μL of the diluted solutions was added to each well of a 384-well polypropylene black plate.
The test and control samples were spun at 1200 rpm for 1 minute and incubated at room temperature for 15 minutes. […] The plates were spun at 1200 rpm for 1 minute and incubated at room temperature for 20 minutes. The assay signals were monitored by reading excitation at 340 nm, and emission fluorescence at 615 nm and 665 nm on a plate reader.
The percentage of activation of protein DNA binding in the presence of a compound of the invention compared to the absence of the compound was denoted by a SC150 value, which indicated the concentration of the compound required to increase the DNA binding activity by 50%. The SC150 values were calculated using either Prism™ or ActivityBase™.

T1 sequence (P04637 94-312, change not shown): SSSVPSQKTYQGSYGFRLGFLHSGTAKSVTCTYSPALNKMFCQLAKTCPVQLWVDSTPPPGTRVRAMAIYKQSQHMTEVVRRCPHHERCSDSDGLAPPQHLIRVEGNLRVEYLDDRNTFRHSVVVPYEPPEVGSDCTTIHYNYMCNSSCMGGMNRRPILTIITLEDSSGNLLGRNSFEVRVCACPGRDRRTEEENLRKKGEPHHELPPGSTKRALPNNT

SC150 (concentration of the compound required to increase the DNA binding activity by 50%)	Structure (SMILES)
++++ (++++ = 0.2 μM ≤ SC150 < 1 μM)	COc1cc(S(C)(=O)=O)ccc1NCC#Cc1cc2c(NC(=O)NC3CCN(CC(O)CO)CC3)cccc2n1CC(F)(F)F (centres unmarked) [Compound 15A, 1-[1-(2,3-dihydroxypropyl)piperidin-4-yl]-3-(2-{3-[(4-methanesulfonyl-2-methoxyphenyl)amino]prop-1-yn-1-yl}-1-(2,2,2-trifluoroethyl)-1H-indol-4-yl)urea]
+ (+ = 0 μM ≤ SC150 < 0.05 μM)	COc1cc(S(=O)(=O)NC2CCOCC2)ccc1NCC#Cc1cc2c(NC3CCN(CC(O)CO)CC3)cccc2n1CC(F)(F)F (centres unmarked) [Compound 552A, 4-{[3-(4-{[1-(2,3-dihydroxypropyl)piperidin-4-yl]amino}-1-(2,2,2-trifluoroethyl)-1H-indol-2-yl)prop-2-yn-1-yl]amino}-3-methoxy-N-(oxan-4-yl) benzene-1-sulfonamide]
+ (+ = 0 μM ≤ SC150 < 0.05 μM)	COCC(O)CN1CCC(Nc2cccc3c2cc(C#CCNc2ccc(S(N)(=O)=O)cc2OC)n3CC(F)(F)F)CC1 (centres unmarked) [Compound 574A, 4-{[3-(4-{[1-(2-hydroxy-3-methoxypropyl)piperidin-4-yl]amino}-1-(2,2,2-trifluoroethyl)-1H-indol-2-yl)prop-2-yn-1-yl]amino}-3-methoxybenzene-1-sulfonamide]
+ (+ = 0 μM ≤ SC150 < 0.05 μM)	COc1cc(S(N)(=O)=O)ccc1NCC#Cc1cc2c(N[C@H]3CC[C@H](N(CCO)CCO)CC3)cccc2n1CC(F)(F)F [Compound 44A, 3-methoxy-4-{[3-(4-{[(1R,4R)-4-[bis(2-hydroxyethyl)amino]cyclohexyl]amino}-1-(2,2,2-trifluoroethyl)-1H-indol-2-yl)prop-2-yn-1-yl]amino}benzene-1-sulfonamide]
+ (+ = 0 μM ≤ SC150 < 0.05 μM)	COCC(O)CN1CCC(Nc2cccc3c2cc(C#CCNc2ccc(S(C)(=O)=O)cc2OC)n3CCF)CC1 (centres unmarked) [Compound 698A, 1-(4-{[1-(2-fluoroethyl)-2-{3-[(4-methanesulfonyl-2-methoxyphenyl)amino]prop-1-yn-1-yl}-1H-indol-4-yl]amino}piperidin-1-yl)-3-methoxypropan-2-ol]
+ (+ = 0 μM ≤ SC150 < 0.05 μM)	COCC(O)CN1CCC(Nc2cccc3c2cc(C#CCNc2ccc(S(C)(=O)=O)cc2O)n3CC(F)(F)F)CC1 (centres unmarked) [Compound 621A, 2-{[3-(4-{[1-(2-hydroxy-3-methoxypropyl)piperidin-4-yl]amino}-1-(2,2,2-trifluoroethyl)-1H-indol-2-yl)prop-2-yn-1-yl]amino}-5-methanesulfonylphenol]

Continued, molecule first:

Structure (SMILES)	SC150 (concentration of the compound required to increase the DNA binding activity by 50%)
COCCNC(=O)c1ccc(NCC#Cc2cc3c(NC4CCN(C)CC4)cccc3n2CC(F)(F)F)c(OC)c1 [Compound 497A]	+ (+ = 0 μM ≤ SC150 < 0.05 μM)
COc1cc(S(C)(=O)=O)ccc1NCC#Cc1cc2c(N[C@@H]3CCN(C(=O)CN)C[C@@H]3F)cccc2n1CC(F)(F)F [Compound 893A]	+ (+ = 0 μM ≤ SC150 < 0.05 μM)
CS(=O)(=O)c1ccc(NCC#Cc2cc3c(N[C@H]4CC[C@H](N5CC6(CCOCC6)C5)CC4)cccc3n2CC(F)(F)F)c(OCF)c1 [Compound 324A, N-((1R,4R)-4-(7-oxa-2-azaspiro[3.5]nonan-2-yl)cyclohexyl)-2-(3-((2-(fluoromethoxy)-4-(methylsulfonyl)phenyl)amino)prop-1-yn-1-yl)-1-(2,2,2-trifluoroethyl)-1H-indol-4-amine]	+ (+ = 0 μM ≤ SC150 < 0.05 μM)
CN1CC[C@@H](Nc2cccc3c2cc(C#CCO)n3CC(F)(F)F)[C@@H](F)C1 [Compound 895A, 3-(4-(((3S,4R)-3-fluoro-1-methylpiperidin-4-yl)amino)-1-(2,2,2-trifluoroethyl)-1H-indol-2-yl)prop-2-yn-1-ol]	+++ (+++ = 0.1 μM ≤ SC150 < 0.2 μM)
NS(=O)(=O)c1ccc(NCC#Cc2cc3c(N[C@H]4CC[C@H](N5CC6(CCOCC6)C5)CC4)cccc3n2CC(F)(F)F)c(OCF)c1 [Compound 316A, 3-(fluoromethoxy)-4-{[3-(4-{[(1R,4R)-4-{7-oxa-2-azaspiro[3.5]nonan-2-yl}cyclo-hexyl]amino}-1-(2,2,2-trifluoroethyl)-1H-indol-2-yl)prop-2-yn-1-yl]amino}benzene-1-sulfonamide]	+ (+ = 0 μM ≤ SC150 < 0.05 μM)
CNC(=O)c1ccc(NCC#Cc2cc3c(NC4CCN(CC5COC(=O)O5)CC4)cccc3n2CC(F)(F)F)c(OC)c1 (centres unmarked) [Compound 762A, 3-methoxy-N-methyl-4-({3-[4-({1-[(2-oxo-1,3-dioxolan-4-yl)methyl]piperidin-4-yl}amino)-1-(2,2,2-trifluoroethyl)-1H-indol-2-yl]prop-2-yn-1-yl}amino)benzamide]	+ (+ = 0 μM ≤ SC150 < 0.05 μM)
COc1cc(S(=O)(=O)Nc2ccon2)ccc1NCC#Cc1cc2c(NC3CCS(=O)(=O)CC3)cccc2n1CC(F)(F)F [Compound 1039A, 4-[(3-{4-[(1,1-dioxo-1λ^6-thian-4-yl)amino]-1-(2,2,2-trifluoroethyl)-1H-indol-2-yl}prop-2-yn-1-yl)amino]-3-methoxy-N-(1,2-oxazol-3-yl)benzene-1-sulfonamide]	+ (+ = 0 μM ≤ SC150 < 0.05 μM)
COCCNC(=O)c1ccc(NCC#Cc2cc3c(N[C@@H]4CCN(C)C[C@@H]4F)cccc3n2CC(F)(F)F)c(OC)c1 [Compound 945A, 4-{[3-(4-{[(3S,4R)-3-fluoro-1-methylpiperidin-4-yl]amino}-1-(2,2,2-trifluoroethyl)-1H-indol-2-yl)prop-2-yn-1-yl]amino}-3-methoxy-N-(2-methoxyethyl)benzamide]	+ (+ = 0 μM ≤ SC150 < 0.05 μM)
CS(=O)(=O)c1ccc(NCC#Cc2cc3c(N[C@H]4CC[C@H](N5CC6(COC6)C5)CC4)cccc3n2CC(F)(F)F)c(C(F)(F)F)c1 [Compound 287A, 2-(3-{[4-methane-sulfonyl-2-(trifluoro-methyl)phenyl]amino}prop-1-yn-1-yl)-N-[(1R,4R)-4-{2-oxa-6-azaspiro[3,3]heptan-6-yl}cyclohexyl]-1-(2,2,2-trifluoroethyl)-1H-indol-4-amine]	+ (+ = 0 μM ≤ SC150 < 0.05 μM)
CNC(=O)c1ccc(NCC#Cc2cc3c(NC4CCN(CC(O)COC)CC4)cccc3n2CC(F)(F)F)c(OCC#N)c1 (centres unmarked) [Compound 654A, 3-(cyanomethoxy)-4-{[3-(4-{[1-(2-hydroxy-3-methoxypropyl)piperidin-4-yl]amino}-1-(2,2,2-trifluoroethyl)-1H-indol-2-yl)prop-2-yn-1-yl]amino}-N-methylbenzamide]	+ (+ = 0 μM ≤ SC150 < 0.05 μM)
CS(=O)(=O)c1ccc(NCC#Cc2cc3c(NC4CCNCC4)cccc3n2CC(F)(F)F)c(OCC#N)c1 [Compound 461A, 2-{5-methanesulfonyl-2-[(3-{4-[(piperidin-4-yl)amino]-1-(2,2,2-trifluoroethyl)-1H-indol-2-yl}prop-2-yn-1-yl)amino]phenoxy}acetonitrile]	+ (+ = 0 μM ≤ SC150 < 0.05 μM)
COc1cc(S(C)(=O)=O)ccc1NCC#Cc1cc2c(N[C@H]3CC[C@H](N4CCCC(OC)C4)CC3)cccc2n1CC(F)(F)F (stereo partly drawn) [Compound 348A, 2-{3-[(4-methane-sulfonyl-2-methoxy-phenyl)amino]prop-1-yn-1-yl}-N-[(1R,4R)-4-(3-methoxypiperidin-1-yl)cyclohexyl]-1-(2,2,2-trifluoroethyl)-1H-indol-4-amine]	+ (+ = 0 μM ≤ SC150 < 0.05 μM)
COCCN(C)S(=O)(=O)c1ccc(NCC#Cc2cc3c(NC4CCN(C)CC4)cccc3n2CC(F)(F)F)c(OC)c1 [Compound 477A, 3-methoxy-N-(2-methoxyethyl)-N-methyl-4-[(3-{4-[(1-methylpiperidin-4-yl)amino]-1-(2,2,2-trifluoroethyl)-1H-indol-2-yl}prop-2-yn-1-yl)amino]benzene-1-sulfonamide]	+ (+ = 0 μM ≤ SC150 < 0.05 μM)
COc1cc(S(C)(=O)=O)ccc1NCC#Cc1cc2c(N[C@@H]3CCN(C)C[C@@H]3OC)cccc2n1CC(F)(F)F [Compound 532A, 2-{3-[(4-methanesulfonyl-2-methoxyphenyl)amino]prop-1-yn-1-yl}-N-[(3S,4R)-3-methoxy-1-methylpiperidin-4-yl]-1-(2,2,2-trifluoroethyl)-1H-indol-4-amine]	++ (++ = 0.05 μM ≤ SC150 < 0.1 μM)
